Read-outs that look alike come from different tables or passages of the source.
How the values were obtained:
human PDK1 = target: T1, human PDK1 (Homo sapiens, UniProt Q15118); assay: Assay for inhibition of PDK activity, PDK1; format: biochemical; conditions: absence of E2/E3BP core (−)
T1 construct: made in house
Description: (§1) Recombinant human PDK2 was expressed and purified as a N terminal His6-tagged SUMO fusion protein with a tobacco-etch-virus protease (TEV) cleavage site in front of the N-terminal PDK2 sequence (26), and was used directly for the activity assay and binding affinity analyses. For crystallization, the protein was subjected to a TEV-protease digestion, and the untagged PDK2 protein was purified on a Superdex 200 column in 20 mM Tris-HCl (pH 8.0), 150 mM NaCl and 5 mM DTT. The purified protein was concentrated to 35-40 mg/ml and stored at −80° C. in small aliquots. Recombinant human PDK1, PDK3 and PDK4 were expressed and purified as described previously (26).
. The remaining steps were described previously (26). IC50 values were obtained by the curve fitting of inhibition isotherms using Prism 6 (GraphPad software, Inc.).

[1] = Pharmacokinetic studies in mice after IP dosing; format: in vivo; conditions: 70 mg/kg IP, male C57BL/6J mice, plasma
Description: Twenty-one male C57BL/6J mice were dosed IP with 70 mg/kg PS-10, 0.2 ml/mouse formulated as 10% DMSO/20% water/70% of 25% (2-hydroxypropyl)-β-cyclodextrin for determination of PS-10 PK. Twenty-one female CD-1 mice were dosed IP with 20 mg/kg PS-8, 0.2 ml/mouse formulated as 5% ethanol and 95% of 0.1 M sodium bicarbonate pH 9.0 for determination of PS-8 PK. Animal (n=3) were sacrificed and whole blood was harvested for each time point. Plasma was processed from whole blood by centrifugation of the ACD treated blood for 10′ at 10,000 rpm in a standard centrifuge. The analytical processing of blood samples and pharmacokinetics studies using LC/MS/MS were as described previously with LC/MS/MS methods optimized for detection of PS-10 and PS-8 (33).

HeLa cells = conditions: read-out: IC50 for the growth inhibition of HeLa cells
PDK2 [2] = target: T2, PDK2 (Homo sapiens, UniProt Q15119); assay: Assay for inhibition of PDK activity, PDK2; format: biochemical; parameters: made in house
Description: as §1, with “For crystallization, the protein was subjected to a TEV-protease digestion, and the untagged PDK2 protein was purified on a Superdex 200 column in 20 mM Tris-HCl (pH 8.0), 150 mM NaCl and 5 mM DTT.” left out
The remaining steps were described previously (26). IC50 values were obtained by the curve fitting of inhibition isotherms using Prism 6 (GraphPad software, Inc.).

PDK2 [3] = target: T2, PDK2; assay: Isothermal titration calorimetry (ITC), binding to PDK2; parameters: made in house; conditions: ITC; read-out: Kd, nM for PDK2
Description: as §1, with “For crystallization, the protein was subjected to a TEV-protease digestion, and the untagged PDK2 protein was purified on a Superdex 200 column in 20 mM Tris-HCl (pH 8.0), 150 mM NaCl and 5 mM DTT.” left out
The PDK2 or Hsp90 N-terminal domain protein was dialyzed against one liter of the dialysis buffer containing 50 mM Tris-Cl, pH 7.5, 50 mM KCl, 1 mM MgCl2, and 0.5 mM β-mercaptoethanol. […] All of the ITC data were initially analyzed by the NITPIC program (32) to construct the baseline, followed by curve-fitting in Origin 7 to obtain binding parameters.

T1 sequence (Q15118 29-436): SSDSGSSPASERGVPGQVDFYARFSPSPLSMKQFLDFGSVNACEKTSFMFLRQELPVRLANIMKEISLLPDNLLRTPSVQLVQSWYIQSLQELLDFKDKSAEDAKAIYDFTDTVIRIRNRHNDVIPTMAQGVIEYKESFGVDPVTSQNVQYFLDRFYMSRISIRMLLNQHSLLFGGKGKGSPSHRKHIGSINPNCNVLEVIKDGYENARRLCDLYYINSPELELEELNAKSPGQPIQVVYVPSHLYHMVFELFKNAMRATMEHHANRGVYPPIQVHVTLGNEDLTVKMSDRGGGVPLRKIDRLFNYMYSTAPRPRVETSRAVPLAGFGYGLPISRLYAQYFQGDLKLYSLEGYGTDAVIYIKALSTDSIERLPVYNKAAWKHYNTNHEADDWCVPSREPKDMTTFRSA

Work on `O=S(=O)(c1ccc(O)cc1O)N1Cc2cc(O)cc(O)c2C1` [PS10, 2-((2,4-dihydroxyphenyl)sulfonyl)isoindoline-4,6-diol] yielded an IC50 (human PDK1) of 2070 nM, a CL/F [1] of 0.741 mL/min and an AUC(0-t) ([1]; mouse) of 31800 ng·h/mL. The Cmax ([1]; mouse) was 32400 ng/mL, the Tmax ([1]; mouse) was 0.167 h and the half-life ([1]; mouse, read-out: Terminal T1/2) was 2.68 h. The Vd/F ([1]; mouse, read-out: Vz/F) was 0.172 L, the IC50 (HeLa cells) was 284000 nM and the IC50 (PDK2 [2]; Table 1, inhibitor 31.6 nM to 1 mM, read-out: IC50, μM for PDK2) was 0.8 µM. For the same compound, the IC50 (PDK2 [2]; absence of E2/E3BP core (−), read-out: IC50 for PDK2) was 0.8 µM and the Kd (PDK2 [3]) was 239 nM.

From patent US10167258B2, “Inhibitors of mitochondrial pyruvate dehydrogenase kinase isoforms 1-4 and uses thereof” (The Board of Regents of the University of Texas System, priority 2013, dated 2019)
